Data: the supplement of paper PMC11424490

Key:
NCI-H2122 [1] = assay: relative IC50 of cell viability (CellTiter-Glo); higher = less potent
Procedure: (§1)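 CellTiter-Glo proliferation assay in KRAS G12C mutant NCI-H2122 (72 h), SW837 (144 h) and NCI-H358 cells in 384-well plates. Monotherapy dose response was fitted with a four-parameter curve after normalisation to DMSO controls (% of control, PoC). IC50 is the relative IC50, averaged over replicates. Bottom is the fitted lower plateau in %PoC; Max.Conc. is the top dose tested.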

SW837 [2] = assay: as above
Procedure: as §1

NCI-H2122 [3] = assay: fitted bottom plateau of viability curve, % of DMSO control; higher = less maximal inhibition; extreme values may be limits of the assay
How it was run: (§2)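 NCI-H2122 (800 cells/well), SW837 and NCI-H358 (500 cells/well) were seeded in 60 µl in 384-well plates. After 24 h, single compounds were dispensed acoustically in dose series and incubated 72 h (NCI-H2122, NCI-H358) or 144 h (SW837). Viability was read by CellTiter-Glo luminescence (15 min shaking, EnVision reader) and normalised to DMSO controls (percent of control). Relative IC50 (averaged over replicates) and the lower plateau come from a four-parameter nonlinear fit.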

SW837 [4] = assay: as above
How it was run: as §2

SMILES	relative IC50 of cell viability (NCI-H2122 [1]) [nM]	relative IC50 of cell viability (SW837 [2]) [nM]	fitted bottom plateau of viability curve (NCI-H2122 [3]) [%]	fitted bottom plateau of viability curve (SW837 [4]) [%]
CCc1cnn2c(NCc3ccc[n+]([O-])c3)cc(N3CCCC[C@H]3CCO)nc12 (top concentration tested 1000 nM)	8.91	25.9	3.3	5.65
CO[C@H]1/C=C/C[C@H](C)[C@@H](C)S(=O)(=O)NC(=O)c2ccc3c(c2)N(C[C@@H]2CC[C@H]21)C[C@@]1(CCCc2cc(Cl)ccc21)CO3 [AMG176] (top concentration tested 10000 nM)	3120		45.9	96.3
COc1cc2cc(c1Cl)N(C)C(=O)C[C@H](OC(=O)C(C)C)[C@]1(C)O[C@@H]1[C@H](C)[C@@H]1C[C@@](O)(NC(=O)O1)[C@H](OC)/C=C/C=C(\C)C2 [Ansamitocin P3] (top concentration tested 99.976 nM)	0.0585	0.162	3.79	26.7
Nc1ncn([C@@H]2O[C@H](CO)[C@@H](O)[C@H]2O)c(=O)n1 [Azacitidine] (top concentration tested 9999.8 nM)	1940		14.4	93
Nc1nc(Cl)nc2c1ncn2[C@@H]1O[C@H](CO)[C@@H](O)[C@@H]1F [Clofarabine] (top concentration tested 10000 nM)	322	1150	23.7	13.4
Nc1ccn([C@@H]2O[C@H](CO)[C@@H](O)[C@@H]2O)c(=O)n1 [Cytarabin] (top concentration tested 999.93 nM)	238	949	32.3	0
Nc1ncn([C@H]2C[C@H](O)[C@@H](CO)O2)c(=O)n1 [Decitabine] (top concentration tested 10000 nM)	1360		57.7	54
CC(=O)O[C@@]12CO[C@@H]1C[C@H](O)[C@@]1(C)C(=O)[C@H](O)C3=C(C)[C@@H](OC(=O)[C@H](O)[C@@H](NC(=O)OC(C)(C)C)c4ccccc4)C[C@@](O)([C@@H](OC(=O)c4ccccc4)[C@H]21)C3(C)C [Docetaxel] (top concentration tested 100.01 nM)	1.68	2.73	4.04	22.5
COc1cccc2c1C(=O)c1c(O)c3c(c(O)c1C2=O)C[C@@](O)(C(=O)CO)C[C@@H]3O[C@H]1C[C@H](N)[C@H](O)[C@H](C)O1 [Doxorubicin] (top concentration tested 1000 nM)	207	142	34.5	1.81
CN(NC(=O)CC(=O)NN(C)C(=S)c1ccccc1)C(=S)c1ccccc1 [Elesclomol] (top concentration tested 10000 nM)	22.7	39	1.27	2.84
O=c1[nH]cc(F)c(=O)[nH]1 [Fluorouracil (5-FU)] (top concentration tested 1000.2 nM)	945		64.6	96.6
CC(C)NC[C@@H](C(=O)N1CCN(c2ncnc3c2[C@H](C)C[C@H]3O)CC1)c1ccc(Cl)cc1 [Ipatasertib] (top concentration tested 10000 nM)	642		57.9	85.8
N[C@@H](Cc1ccc(N(CCCl)CCCl)cc1)C(=O)O [Melphalan] (top concentration tested 10000 nM)	2140		46.6	52.1
COc1cc(OC)c(/C=C/S(=O)(=O)Cc2ccc(OC)c(NCC(=O)O)c2)c(OC)c1 [Rigosertib] (top concentration tested 1000.1 nM)	123		5.86	58.2
CC(C)C[C@@H](C(=O)N[C@H](C(=O)OC1CCCC1)c1ccccc1)[C@H](O)C(=O)NO [Tosedostat] (top concentration tested 9999.9 nM)	776		51.2	92.2
COc1cc2c(NC3CCN(C(C)C)CC3)nc(C3CCCCC3)nc2cc1OCCCN1CCCC1 [UNC0638] (top concentration tested 10000 nM)	8590		46.7	88.9
O=C(CCCCCCC(=O)Nc1ccccc1)NO [Vorinostat] (top concentration tested 10000 nM)	2440		10.7	25

Continued, in another order:

relative IC50 of cell viability (NCI-H2122 [1]) [nM]	relative IC50 of cell viability (SW837 [2]) [nM]	SMILES	fitted bottom plateau of viability curve (NCI-H2122 [3]) [%]	fitted bottom plateau of viability curve (SW837 [4]) [%]
3030	2390	Cc1[nH]c(/C=C2\C(=O)Nc3ccc(S(=O)(=O)Cc4c(Cl)cccc4Cl)cc32)c(C)c1C(=O)N1CCC[C@@H]1CN1CCCC1 (top concentration tested 10000 nM)	0.553	1.78
3860	2110	NC(=O)c1cnc(N[C@@H]2CCCC[C@@H]2N)nc1Nc1cccc(-n2nccn2)c1 (top concentration tested 10000 nM)	39.3	30.9
8090		CC1(C)CCC(CN2CCN(c3ccc(C(=O)NS(=O)(=O)c4ccc(NCC5CCOCC5)c([N+](=O)[O-])c4)c(Oc4cnc5[nH]ccc5c4)c3)CC2)=C(c2ccc(Cl)cc2)C1 [ABT-199] (top concentration tested 10000 nM)	65.6	95.3
6060		COc1cc(OC2CCN(C)CC2)ccc1Nc1ncc2c(n1)n(C1CCCC1)c(=O)n2C [AZ3146] (top concentration tested 10000 nM)	39.4	57.4
	1900	CO[C@H]1CC[C@H](n2c([C@@H]3CCCC(=O)N3c3ccc(F)c(F)c3)nc3cc(-c4c(C)noc4C)ccc32)CC1 [CCS1477] (top concentration tested 10000 nM)	77.8	36.9
139	178	O=C(c1ccc(F)c(F)c1Nc1ccc(I)cc1F)N1CC(O)([C@@H]2CCCCN2)C1 [Cobimetinib] (top concentration tested 999.97 nM)	3.48	31.2
126		COc1ncc(-c2nc3c(n2C(C)C)[C@H](c2ccc(Cl)cc2)N(c2cc(Cl)cn(C)c2=O)C3=O)c(OC)n1 [HDM-201] (top concentration tested 9999.9 nM)	25.1	84.1
	7020	O=C(/C=C\n1cnc(-c2cc(C(F)(F)F)cc(C(F)(F)F)c2)n1)NNc1cnccn1 [KPT-330] (top concentration tested 50000 nM)	91.8	20.6
6690		COc1ccccc1-c1cc(Nc2cccc(CS(N)(=O)=O)c2)ncn1 [LDC-067] (top concentration tested 10000 nM)	47.3	87.9
200		Cc1ccc(NC(=O)c2ccnc(C(F)(F)F)c2)cc1-c1cc(OCCO)nc(N2CCOCC2)c1 [LXH-254] (top concentration tested 1000 nM)	63.6	94.2
3960		CCc1cccc(CC)c1NC(=O)c1nn(C)c2c1CCc1cnc(Nc3ccc(C(=O)NC4CCN(C)CC4)cc3OC(F)(F)F)nc1-2 [NMS-P715] (top concentration tested 10000 nM)	48.7	58.9
3430		O=c1cc(N2CCOCC2)oc2c(-c3cccc4c3sc3ccccc34)cccc12 [NU-7441] (top concentration tested 10000 nM)	42.8	70.7
2510		Cc1cn(-c2cc(NC(=O)c3ccc(C)c(Nc4nccc(-c5cccnc5)n4)c3)cc(C(F)(F)F)c2)cn1 [Nilotinib] (top concentration tested 10000 nM)	14	68.8
21.4		Nc1nc2[nH]cc(CCc3ccc(C(=O)N[C@@H](CCC(=O)O)C(=O)O)cc3)c2c(=O)[nH]1 [Pemetrexed] (top concentration tested 10000 nM)	43.3	90.7
1100		Cc1ncc(NC(=O)c2cccc(C(F)(F)F)c2)cc1-c1cnc(OC2CCOCC2)c(N2CCOCC2)c1 [RAF-709] (top concentration tested 10000 nM)	11.1	87.9
4650		CCN(CC)CCNC(=O)c1c(C)[nH]c(/C=C2\C(=O)Nc3ccc(F)cc32)c1C [Sunitinib] (top concentration tested 9999.9 nM)	31.4	59.9
2140		CS(=O)(=O)c1ccc(-c2cnc(N)c(C(=O)Nc3ccccc3)n2)cc1 [VE-821] (top concentration tested 10000 nM)	34.2	82.4
8090		COc1cc2nccc(Oc3ccc(NC(=O)C4(C(=O)Nc5ccc(F)cc5)CC4)cc3)c2cc1OC [XL-184] (top concentration tested 9999.9 nM)	35.3	55.8
